# Target: T1, RPK (Ripped Pocket) (Drosophila melanogaster, UniProt Q7KTQ9)
# T1 sequence (Q7KTQ9 1-562): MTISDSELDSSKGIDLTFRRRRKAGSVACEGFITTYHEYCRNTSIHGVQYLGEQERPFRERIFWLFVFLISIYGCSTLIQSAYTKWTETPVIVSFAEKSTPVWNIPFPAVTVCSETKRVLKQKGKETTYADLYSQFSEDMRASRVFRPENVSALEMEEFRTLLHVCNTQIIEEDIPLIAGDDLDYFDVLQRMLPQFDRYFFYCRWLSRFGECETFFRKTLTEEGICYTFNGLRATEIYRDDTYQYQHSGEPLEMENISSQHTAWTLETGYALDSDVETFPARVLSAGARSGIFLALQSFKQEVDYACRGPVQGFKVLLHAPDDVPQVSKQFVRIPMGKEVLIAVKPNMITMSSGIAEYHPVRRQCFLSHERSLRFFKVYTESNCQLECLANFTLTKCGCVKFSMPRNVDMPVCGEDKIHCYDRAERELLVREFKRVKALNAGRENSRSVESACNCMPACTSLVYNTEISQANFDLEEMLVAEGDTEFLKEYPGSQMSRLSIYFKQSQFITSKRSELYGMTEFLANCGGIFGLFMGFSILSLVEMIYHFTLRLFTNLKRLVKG
# Experiment: two-electrode voltage clamp, Xenopus oocytes, dose-response of Na+ current block
# Type: cell-based
smiles,measurement,value
N=C(N)NC(=O)c1nc(Cl)c(N)nc1N [amiloride],IC50,9 ± 0.1 µM

# Reference: publication PMC2132602 (The Journal of Cell Biology, 1998)
